For three compounds, Selective toxicity and EC50 results are on record in patent publication US8193224B2, “Medicinal composition for prevention or treatment of parasitic protozoan infection” (Fujifilm Corporation, priority 2004, dated 2012).

Test [1] deals with Leishmania donovani (MHOM/ET/67/L82 strain). The test is described as follows: Leishmania protozoa growth inhibition screening test. Type of test: cell-based. As to conditions: chemotherapy index = EC50 rat L6 cells / EC50 leishmania protozoa.
For test [2] the test system is unchanged. Described as above. Format: cell-based. The following applies: Leishmania donovani; MHOM/ET/67/L82 strain amastigote, pH 5.4, 72 hours, Alamar Blue; read-out: 50% growth inhibition concentration Leishmania donovani.

In test [1], `CCN1/C(=C/C=c2\s/c(=C\c3sc4c5ccccc5ccc4[n+]3CC)n(CC)c2=O)Sc2ccc3ccccc3c21` [A-1] returned a Selective toxicity of 3600. Besides, the EC50 in test [2] was 8.3 nM.
On the same counts, the results for `CCN1C(C)=CS/C1=C\C=c1/s/c(=C\c2sc3ccccc3[n+]2CC)n(CC)c1=O` [A-15] are 130 and 170 nM.
In the case of `CCN1/C(=C/C=c2\s/c(=C\C3=[N+](CC)CCS3)n(CC)c2=O)C=Cc2ccccc21` [A-10], the Selective toxicity in test [1] is 130. Further, in test [2], the EC50 is 150 nM.
